{"source": "patent US6492137B1", "about": "“Response element compositions and assays employing same” (The Salk Institute for Biological Studies, priority 1989, dated 2002)", "molecules": {"B1": {"name": "DR-3 (dsDNA)", "DNA 1": "AGCTTCAGGTCAAGGAGGTCAGAGAGCT", "DNA 2": "AGCTCTCTGACCTCCTTGACCTGAAGCT"}, "B2": {"name": "DR-4 (dsDNA)", "DNA 1": "AGCTTCAGGTCACAGGAGGTCAGAGAGCT", "DNA 2": "AGCTCTCTGACCTCCTGTGACCTGAAGCT"}}, "key": {"[1]": {"target": "T1, RARα (Homo sapiens, UniProt P10276)", "T1 sequence (P10276 1-462)": "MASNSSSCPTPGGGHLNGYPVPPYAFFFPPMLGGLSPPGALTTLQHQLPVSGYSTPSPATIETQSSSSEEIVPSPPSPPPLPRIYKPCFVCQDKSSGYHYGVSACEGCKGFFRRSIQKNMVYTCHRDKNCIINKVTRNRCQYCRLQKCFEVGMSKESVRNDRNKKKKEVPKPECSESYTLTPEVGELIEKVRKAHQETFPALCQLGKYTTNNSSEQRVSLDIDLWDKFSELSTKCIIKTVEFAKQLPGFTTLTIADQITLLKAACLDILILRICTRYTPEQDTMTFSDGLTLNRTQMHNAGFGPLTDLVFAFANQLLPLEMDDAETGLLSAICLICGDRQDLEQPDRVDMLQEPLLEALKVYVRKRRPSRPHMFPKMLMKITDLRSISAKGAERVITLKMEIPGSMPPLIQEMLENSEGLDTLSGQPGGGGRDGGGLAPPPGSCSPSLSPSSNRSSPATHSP", "test": "ΔSV-CAT reporter cotransfection assay in CV-1 cells with RARα expression plasmid, ±RA", "assay_type": "cell-based", "design": "expressed in transfected cells; host or cells: CV-1 (monkey kidney)", "settings": "RA 1 μM", "source_text": "Receptor expression plasmids used in the following cotransfection assays have been described previously (pRShTRβ [see Thompson, et al., Proc. Natl. Acad. Sci. U.S.A. 86: 3494-3498 (1989)]; pRShRARα [see Giguere, et al., Nature 330: 624-629 (1987)]; pRShRARβ and pRshRARγ [see Ishikawa, et al., Mol. Endocrinol, 4: 837-844 (1990)]; and pRShVDR, [Schule, et al., Cell 61: 497-504 (1990)]. A basal reporter plasmid ΔSV-CAT was constructed by replacing the TK promoter in TK-CAT [Damm, et al., Nature 339: 593-597 (1989)] with the SphI-HindIII fragment of the SV40 early promoter. All of the recombinant CAT reporter plasmids used herein harbor a single copy of the indicated oligonucleotides at the unique HindIII site upstream of the SV40 promoter. Identity of the inserted oligonucleotides was confirmed by sequencing. To improve production of receptor proteins in COS cells, a new eukaryotic expression vector pCMX was prepared by modifying the plasmid CDM8 [Seed, B., Nature 329: 840-842 (1987)]. The CDM8 was cut with MluI and StuI in order to release the DNA fragment encoding the CMV/T7 promoter, SV40 small t intron/poly A signal, polyoma virus enhancer/origin, and SV40 enhancer/origin. The resulting fragment was ligated to a larger fragment of PvuII-digested PUC19. An internal deletion was introduced between unique BamHI and BclI sites present in the DCM8 portion. The stuffer sequence flanked by XbaI sites was replaced with a synthetic polylinker coding for 5′-KpnI/Asp718-EcoRV-BamHI -MscI-NheI-3′, followed by a stretch of 5′-[…]-3′ (SEQ ID NO:48) which can function as a universal termination signal for protein translation. The coding sequence of the luciferase [de Wet, et al., Mol. Cell. Biol. 7: 725-737 (1987)] and human TRβ, RARα, and VDR was placed in the polylinker region of the pCMX, generating pCMX-LUC, Pcmx-Htrβ, pCMX-hRARα, and pCMX-hVDR, respectively. The translation start site of the RARα was modified to […] by attaching the synthetic linker encoding a consensus translation start signal [Hollenberg, et al., Cell 55: 899-906 (1988)]. […]"}, "[2]": {"target": "T2, TRβ (Homo sapiens, UniProt P10828)", "T2 sequence (P10828 1-461)": "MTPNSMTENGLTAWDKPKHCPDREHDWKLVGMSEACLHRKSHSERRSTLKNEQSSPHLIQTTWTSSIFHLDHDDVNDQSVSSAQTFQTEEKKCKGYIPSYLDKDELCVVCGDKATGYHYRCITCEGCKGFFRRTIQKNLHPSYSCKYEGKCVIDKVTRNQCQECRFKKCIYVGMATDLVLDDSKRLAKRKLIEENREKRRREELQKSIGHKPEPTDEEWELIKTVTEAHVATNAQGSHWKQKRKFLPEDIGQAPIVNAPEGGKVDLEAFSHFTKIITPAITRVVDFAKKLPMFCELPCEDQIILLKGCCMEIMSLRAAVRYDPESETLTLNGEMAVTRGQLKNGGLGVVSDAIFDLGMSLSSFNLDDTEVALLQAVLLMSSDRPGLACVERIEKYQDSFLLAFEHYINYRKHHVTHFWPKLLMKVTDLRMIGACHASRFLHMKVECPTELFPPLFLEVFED", "test": "Gel retardation DNA-binding assay with TRβ-expressing COS cell extracts", "design": "expressed in transfected cells; host or cells: COS cells (whole-cell extract)", "settings": "gel retardation; TRβ COS cell extract", "procedure": "For DNA binding assays, COS cells were cultured in DMEM with 10% calf bovine serum and transfected by the calcium phosphate method with 20 μg of the pCMX receptor expression plasmid for 6 hours followed by a glycerol shock. After incubating the transfected COS cells for another 48 hours, the cells were harvested to prepare extracts for the DNA binding assay, carried out as described by Damm et al., Nature 339: 593-597 (1989). The extracts were made in 20 mM HEPES (pH 7.4), 0.4 M KCl, 2 mM DTT and 20% glycerol. A similar method was employed to prepare a whole cell extract from F9 stem cells. For the binding, 5 μg (COS) or 10 μg (F9) of proteins was incubated on ice for 20 minutes, first in 20 mM HEPES, 80 mM KCl, 1 mM DTT, 0.1% NP40, 2.5 μg of poly dI/dC, and 10% glycerol (cold competitor oligonucleotides, when included, were added during this pre-incubation period). Then 40 fmole of ^32P-labeled oligonucleotide probe (1-2×10^5 cpm, prepared by filling-in reaction using Klenow polymerase in the presence of α-^32P-dCTP) was added to the reaction mixture, followed by incubation at room temperature for 30 minutes. The receptor-DNA complexes were resolved by electrophoresis through 5% polyacrylamide gel containing 5% glycerol at 6 V/cm at room temperature.\nOligonucleotides listed in FIG. 3 were used as a probe to test specific DNA-binding of the RARα and TRβ in a gel retardation assay.\nUsing the mobility shift assay, the DNA-binding capacity of extracts from COS cells expressing TRβ and RARα to these sequences was also tested."}, "[3]": {"system": "RAR", "test": "Delta-MTV constructs, RA induction in CV-1 cells with cotransfected RAR expression vector", "assay_type": "cell-based", "settings": "Delta-MTV promoter; with vs without RAR expression vectors", "procedure": "Inspection of the sequences of βRE1, βRE2, and βRE3 (see FIG. 2b) identifies a tandem repeat of the 6 bp motif. The center to center separation of 11 bp between these repeats is one turn of the DNA helix. […] Apparently, a single half site element of the RARβ gene would reciprocally be responsive to the TR, ER, and/or other members of the receptor superfamily.\nCells were transfected in 10 cm dishes with 10 μg of DNA containing 5 μg of reporter plasmid, 1-2 μg of either RSV-LUC (a), or RSV-βGAL or pCH110 (c and d), pGEM4 as carrier DNA, and for the experiments shown in a and d, 1 μg of RSV-RAR expression vector or the same amount of an RSV vector generating a nonsense transcript. Cells were harvested 1 day after addition of retinoic acid. All CAT assays represent equivalent amounts of β-galactosidase activity; β-GAL assays were normalized to luciferase activity."}, "[4]": {"target": "T3, Vitamin D receptor (VDR), in CV-1 cells (Homo sapiens, UniProt P11473 P11473:1-427)", "T3 sequence": "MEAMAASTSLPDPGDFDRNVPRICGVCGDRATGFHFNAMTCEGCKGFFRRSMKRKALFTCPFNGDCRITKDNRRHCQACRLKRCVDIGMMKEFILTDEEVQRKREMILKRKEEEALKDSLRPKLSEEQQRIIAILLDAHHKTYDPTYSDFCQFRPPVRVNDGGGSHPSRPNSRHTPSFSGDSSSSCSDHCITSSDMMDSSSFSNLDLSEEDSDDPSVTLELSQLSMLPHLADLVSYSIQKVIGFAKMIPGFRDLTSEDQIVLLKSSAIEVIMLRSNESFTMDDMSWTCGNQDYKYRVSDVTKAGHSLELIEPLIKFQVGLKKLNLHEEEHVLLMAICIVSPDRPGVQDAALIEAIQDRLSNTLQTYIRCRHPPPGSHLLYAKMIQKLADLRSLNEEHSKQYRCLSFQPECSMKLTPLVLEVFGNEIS", "test": "cell_activity; vitamin D3 100 nM, CV-1", "settings": "tags: pRShVDR; label: 32P; 5'-agct overhangs", "procedure": "(§1) For cotransfection assays, a monkey kidney cell line CV-1 was kept in Dulbecco's modified Eagle's medium (DMEM) supplemented with 10% charcoal-resin double split calf bovine serum. Transfections were performed via calcium-phosphate precipitation method as described by Umesono, et al. in Cell 57: 1139–1146 (1989), with 0.5 μg of a pRS receptor expression plasmid, 1.0 μg of a reporter CAT plasmid, 5 μg of pRAS-βGAL [Umesono, et al., Cell 57: 1139–1146 (1989)] as an internal control, and 8.5 μg of carrier plasmid pUC19. The cells were transfected for 8 hours; after washing the DNA precipitates, the cells were then incubated for an additional 36 hours with or without the ligand (T_3, 100 nM; RA, 1 μM; 1,25-(OH)_2 vitamin D_3, 100 nM). Cell extracts were prepared for βGAL and CAT assays, as described by Umesono, et al., supra. Transfection of F9 teratocarcinoma cells was carried out employing a similar method except the cells were incubated for 12 hours in the presence of the DNA precipitates, and the RA was added at 1 μM for another 24 hours before harvesting the cells. 2, 5, and 4 μg of the reporter, pRAS-βGAL, and pUC19 were used, respectively.\n(§2) The above strategies were used to test both in vivo transactivation and in vitro DNA-binding of these artificial HREs for TRβ, RARα, and VDR. […]"}, "[5]": {"target": "T4, Thyroid hormone receptor beta (TRβ), in CV-1 cells (Homo sapiens, UniProt P10828 P10828:1-461)", "T4 sequence": "T2 sequence (P10828 1-461)", "test": "cell_activity; T3 100 nM, CV-1", "settings": "tags: pRShTRβ; label: 32P; 5'-agct overhangs", "procedure": "as §1, §2"}}}
{"molecule": "DR-4: perfect tandem repeat of AGGTCA hexamers separated by 4 nucleotides (SEQ ID NO:27) (AGCTTCAGGTCACAGGAGGTCAGAGAGCT; DNA, backbone not given here; double-stranded DNA response element with agct overhangs, cloned into reporter)", "values": [{"measurement": "RA response (in words)", "setting": "[1]", "value": "clear activity"}, {"measurement": "TRβ binding to labeled oligonucleotide probe", "setting": "[2]", "value": "specific protein-DNA complex"}]}
{"molecule": "βRE4: construct containing a single copy of either the 5′- or 3′- half site (SEQ ID NO:8) (AAGCTTCGAAAGTTCACTCGCATAGCTT; listed as DNA, chemistry not given here)", "values": [{"measurement": "function of single half-site constructs", "setting": "[3]", "value": "functional only upon cotransfection of RAR expression vectors"}]}
{"molecule": "βRE5: construct containing a single copy of either the 5′- or 3′- half site (SEQ ID NO:9) (AAGCTTAAGGGTTCACCGAGCTT; listed as DNA, chemistry not given here)", "values": [{"measurement": "function of single half-site constructs", "setting": "[3]", "value": "functional only upon cotransfection of RAR expression vectors"}]}
{"molecule": "B1", "values": [{"measurement": "activity", "setting": "[4]", "value": 8.3, "unit": "fold induction"}]}
{"molecule": "B2", "values": [{"measurement": "activity", "setting": "[5]", "value": 22, "unit": "fold induction"}]}
